“And” between values parts separate entries of the source, which are not always exact repeats. Equal entries are not always repeated. “Also recorded” adds a separate entry of the source. Where no end group is shown, it is not given here.
Tests used:
[1] = Mineralization in aqueous solution (kinetics)
Method: Fast kinetics refers to fast mineral formation, such as immediate mineral formation, while slow mineral formation refers to mineral formation over a period of time, such as about 5 minutes to about 1 hour. In some embodiments, a first biomineralizing peptide having faster kinetics can be used in combination with a second biomineralizing peptide having slower kinetics.
The ADP5 peptide was generated using a procedure that was developed for designing protein derived peptides as described previously. Briefly, 7-AA and 12-AA long hydroxyapatite binding peptides (HABPs) were experimentally selected using the c7c- and 12-phage libraries (New England BioLabs Inc., Ipswich, Mass., USA), respectively. Next, the 180 amino acid-long human amelogenin protein (rM180) was divided into 7-AA and 12-AA long segments and each segment was compared with all of the 155 experimentally selected HABPs. The regions with high similarity scores from 7-AA and 12-AA long segments were overlapped and those coinciding high similarity regions were chosen as the putative strong binding regions. These computationally determined high similarity regions were then refined to design the ADPs by protein structure prediction, Ca^2+ ion-binding domain predictions, and meta-functional signature analyses. […]

[2] = Layer-by-layer mineralization by peptide in solution on white spot lesion; set-up: species or system human; conditions: 0.8 mM sADP5
Method: On extracted human tooth, the entire tooth was painted with lacquer (nail polish) except a 3 mm by 3 mm window on enamel. This window was subjected to etching then remineralization. The following steps were then carried out:
• 1. Etch enamel surface aqueous solution of 2.2 mM K2HPO4, 2.2 mM CaCl2, and 50 mM acetic acid at pH 4.5 for 2 weeks, changing solution every other day, to create white spot lesion (WSL) […]. • 2. Soak in 100 ml of 0.8 mM sADP5 solution at 37 C for 10 minutes then blot dry with tissue paper. • 3. Soak in 600 ml of 4.8 mM CaCl2+2.8 mM K2HPO4 in pH 7.4 Tris buffer at 37 C for 1 hour. • 4. Drip rinse with DI water for 20 seconds then blot dry with Kimwipe™ sheet. • 5. Repeat steps 3-4 to add more mineralized layers. Results & Discussions—

[3] = 0.8 mM sADP5 10 minutes, then Ca/PO4 1 hour at 37° C.
Method: Extracted human teeth samples were collected from University of Washington clinics. The enamel tissue was cut out the using low speed saw on a perpendicular direction to the underlying dentin tubules. Next, the smear layer on the dentin was removed by polishing down to 0.1 um finish and etching for 10 seconds using 10% citric acid solution. For remineralization treatment, samples were soaked into 200 ul of 0.8 mM sADP5 peptide (SEQ ID NO:24) solution and incubated for 10 minutes at 37° C. Next, excess peptide was removed by blotting and the sample was soaked in 24 mM Tris Buffer solution supplemented with 4.8 mM Ca and 2.88 mM PO4 ions for 1 hour at 37° C. Following the remineralization treatment, samples were rinsed with deionized water, dried in air and characterized with scanning electron microscope

[4] = Side-by-side comparison of peptide-mineralized whitening versus commercial whitening products; conditions: Image-J analysis of optical images; strip 30 mins, gel 10 minutes, peptide 0.8 mM 10 mins + artificial saliva 1 hr
Method: The whitening products were used according to the manufacturers' directions. For the strip, the product was applied to the pre-stained tooth for 30 mins and peeled off. Then the samples were rinsed with water for 1 min to clean the surface of the teeth from any residues from the strip. In the case of the second product, the gel was applied to the pre-stained teeth for 10 minutes and then cleaned by rinsing with water for 1 minute. In the peptide-remineralization case, the stained teeth were incubated with sADP5 (SEQ ID NO:24) peptide solution (0.8 mM) for 10 mins., followed by soaking in the artificial saliva (for 1 hr) that was supplemented with 4.8 mM Ca and 2.9 mM PO4 ionic concentrations.
The samples treated with whitening products or with the remineralization method were prepared for optical imaging for color change and also for surface characterization with scanning electron microscopy. The images of the teeth samples were recorded using a light optical microscopy technique under compact fluorescent light. The recorded images were digitized and examined with Image-J Line (NIH Software) for quantitative analysis of the color change (a, d, f and h). The cross-sectioned samples were prepared for SEM examination of the internal as well as surface structure of the teeth, and the results are shown in FIG. 15 (e, g, and i, plus their inset images).

[5] = Solid binding affinity to HAp
Excerpt: The ADP5 peptide was generated using a procedure that was developed for designing protein derived peptides as described previously. Briefly, 7-AA and 12-AA long hydroxyapatite binding peptides (HABPs) were experimentally selected using the c7c- and 12-phage libraries (New England BioLabs Inc., Ipswich, Mass., USA), respectively. Next, the 180 amino acid-long human amelogenin protein (rM180) was divided into 7-AA and 12-AA long segments and each segment was compared with all of the 155 experimentally selected HABPs. The regions with high similarity scores from 7-AA and 12-AA long segments were overlapped and those coinciding high similarity regions were chosen as the putative strong binding regions. These computationally determined high similarity regions were then refined to design the ADPs by protein structure prediction, Ca^2+ ion-binding domain predictions, and meta-functional signature analyses. Two separate assays were developed to characterize the ADPs: Solid binding affinity to HAp and mineralization in aqueous solution. […] Because of this property, ADP5 has been used for developing mineralization on human teeth. […] For this, we eliminated the six amino acids from the amino end and alanine from the carboxyl end, while keeping the charged amino acids intact that are thought to initiate mineralization. […]

## (HPP(S/T)HTLQPHHH(L/I)PVVPAQQPV(A/I)PQQPMMPVPG(H/Q)HSMTP(T/I)QH)1-10 [ADP7]
[1]
  mineralization kinetics: slow kinetic profile

## (SYEKSHSQAINTDRT)1-10 (also: repeated 1-10 times) [sADP5]
[2]; after 4 repetitions
  Ca/P of new mineral layers: 1.43+0.15
[2]; after 4 repetitions of the mineralization steps
  number of distinctive mineral layers formed: 4
[3]
  depth of mineral penetration into tubules: 2-3 um
  occlusion of exposed dentin tubules: successfully occluded
[4]
  increase of tooth shade above tea-stained baseline: 4.64% and 4.6%

## (PGYIN(L/F)SYE(K/N)SHSQAIN(T/V)DRTA)1-10 [ADP5]
[5]
  binding to HAp: one of the weakest binding peptides
[1]
  mineralization kinetics: fastest mineralization kinetics; also recorded: fast kinetic profile

Reference: US10952940B2, “Reagents and methods for mineralization of tooth enamel” (UNIVERSITY OF WASHINGTON, priority 2016, dated 2021)
